In data set [1] the test system is cell surface β2AR. Description: Flowcytometry of cell surface β2AR in 293.β2AR^WT cells. It counts as cell-based, human. The protocol:
(§1) Cell Culture, Transfection and Drug Treatments. […] Transfection of DNA into 293T cells was using FuGene 6 reagent (Roche) according to manufacturer's instruction. […] FDPS-specific siRNA (sense [NT], antisense [NT]) was from Sigma-Aldrich and the non-targeting Scrambled siRNA was from Thermo Scientific. […] Cells were washed with PBS and incubated with diluted TrypLE Express Enzyme (Invitrogen) (1:10 dilutio in PBS) for exactly 1 min at room temperature followed by adding regular medium immediately. […] Then cells were washed again and passed through cell strainers to remove cell clumps before being sorted on a FACS Aria multicolor high speed sorter (Becton Dickinson). During FACS analysis, the population of single cell was gated to measured FITC (green) signal. Background of auto-fluorescence was identified by plotting FITC with PE (red) or SSC (side scatter) signal. FITC-positive cells were collected in calcium and magnesium-free PBS with 20% FBS. Collected cells were cultured for repeating FACS sorting. […] The population of PI-negative single cell was gated to measured FITC signal.

Data set [2] relates to cell surface β2AR. Nature of the data set: Flowcytometry of cell surface β2AR in 293.β2AR* (recycle-deficient FLAG-β2AR, β2ARt) cells. In kind it is cell-based, human. As to the method:
as §1

Data set [3] has as its system cellular cholesterol. Description: Cellular cholesterol measurement in 293.β2AR* cells. It counts as cell-based, human. The protocol: Error bars represented the standard deviations of replicates.
Cellular cholesterol measurement. 1×10^6 cells were cultured in each well of 6-well plates in DMEM containing 10% FBS for 3 d until fully confluent. Then drug treatments were performed in either DMEM containing 10% FBS or Opti-MEM without serum in duplicates. Cells were transferred to microcentrifuge tubes, washed twice with ice-cold PBS. Total lipids were extracted by resuspending and lysing cells in 300 μL of Chloroform: Isopropanol: Triton X-100 (7:11:0.1). The organic phase was collected after centrifugation at 12,000 rpm for 10 min and then evaporated at 50° C. for 3-4 h. Lipids were resuspend in 200 μL of Cholesterol Reaction buffer included in a commercial cholesterol measurement kit (Invitrogen) by votexing. Cholesterol was measured by the cholesterol oxidase method according to the manufacturer's directions. 2 or 4 measurements were taken for each replicate sample.

Data set [4] deals with human airway smooth muscle cells. Nature of the data set: Optical Magnetic Twisting Cytometry (elastic modulus) of HASM cells. The settings on record: for decrease of stiffness compared to baseline: 1 mM isoproterenol, measured over 15 min.
The test system of data set [5] is CaMKK2. Nature of the data set: qRT-PCR of CaMKK2 mRNA in primary HASM cells. In kind it is cell-based, human. The settings on record: 50 nM siRNA; three days after transfection. (Quantitative PCR measures a nucleic acid by following its amplification.)
The subject of data set [6] is β2AR. Description: Immunoblot of β2AR protein in human airway smooth muscle (HASM) cells. The settings on record: 20 μM isoproterenol for 2 d; vs non targeting shRNA. A general note: In western blotting, separated proteins are transferred to a membrane and probed.
Description: Error bars represented the standard deviations; Student t-test * p<0.05, n=2. […] Indirect Immunofluorescence staining of β2AR and phase contract images are shown.
Three days after the inhibitor treatment cell lysates were collected and analyzed by immunoblotting. Three repeats were done with similar results.
Immunoblot analysis. 48 h post DNA transfection, cells were wash with PBS and lysed with NP-40 lysing buffer (50 mM Tris-HCl pH7.5, 150 mM NaCl, 0.5% Nonidet P-40) containing protease inhibitor cocktail (Roche). Protein samples were separated on NuPAGE 10% Bis-Tris gels (Invitrogen) and transferred to nitrocellulose membranes (Bio-Rad). Immunoblot signals were developed using SuperSignal West Pico Chemiluminescent Substrate (Pierce, Rockford, Ill., USA) and quantified by a Luminescence Imager or exposed to X-ray films.
Data set [7] concerns FDPS. Nature of the data set: Real-time RT-PCR of FDPS mRNA in 293β2AR* cells. In kind it is cell-based, human. The settings on record: normalized to β-Actin. As to the method:
FIGS. 4A-4D show FDPS regulates the amount of Cell Surface β2AR in 293βAR* cells. […]. […] Cells were transduced with Lentivirus expressing FDPS-specific shRNA or empty vector, or transfected with FDPS-specific siRNA or non-targeting Scrambled (SCR) siRNA. The RNA levels were determined by real time RT-PCR and normalized to that of β-Actin. Error bars represented the standard deviations of replicates. Statistic analysis was using student's t-test. […]. MFI: Mean fluorescence intensity.
Real-Time RT-PCR. Total RNA was isolated by using TRIzol (Invitrogen) and further cleaned up by using RNeasy Mini kit (Qiagen) with DNase I digestion. cDNA was synthesized by using oligo-dT primers and SuperScript III (Invitrogen). Real-time PCR was performed on ABI Prism 7300 with SYBR Green (Qiagene). The FDPS was amplified with primers FDPS-1F (5′-TGACCGGCAAAATTGGCACTGACAT-3′) (SEQ ID NO: 20) and FDPS-1R (5′-CCTTCACCCGGGCCACTTTCTCA-3′) (SEQ ID NO: 21). […]. The β-Actin control was amplified with primers (Forward, 5′-AAG GCC AAC CGC GAG AAG-3′ (SEQ ID NO: 28) and Reverse, 5′-GGC GTA CAG GGA TAG CAC-3′ (SEQ ID NO: 29)).

Data set [8] has as its target T1, β2ARt (Homo sapiens, UniProt P07550).
T1 construct: a distally truncated form (after residue 385) of β2AR (β2ARt); expressed in transfected cells; host or cells: HEK293 (293.β2AR*)
Description: Immunoblot of agonist-induced β2AR degradation in 293β2AR* / β2ARt cells. In kind it is cell-based. The settings on record: after 3 hours of agonist induction (10 μM isoproterenol); vs empty vector. As to the method:
β2AR ubiquitination and degradation assays. Cells expressing […] or β2ARt were subjected to 10 μM ISO (Sigma) stimulation, lysed in 0.5% NP-40 lysis buffer and immunoblotted with anti-FLAG-HRP (Sigma). For β2AR ubiquitination, β2ARt or wt-β2AR expressing cells were first incubated with 10 μM alprenolol antagonist (Sigma) for 15 min (to reduce constitutive background ubiquitination), stimulated with 10 μM ISO and lysed in buffer supplemented with 10 mM N-ethylmaleimide (NEM; Sigma) to inhibit deubiquitinase activity. Anti-FLAG EZview beads (Sigma) used for the IP were subjected to three 10 min washes with lysis buffer and resuspended in 50 μl 2βLDS sample buffer (Invitrogen) containing 10% β-mercaptoethanol (Sigma) and analyzed by immunoblotting.

The target in data set [9] is T2, NEDD4 E3 ubiquitin ligase (UniProt P46934-4 1-900, limits assumed).
T2 construct: also called ubiquitin ligase NEDD4
T2 sequence (looked up): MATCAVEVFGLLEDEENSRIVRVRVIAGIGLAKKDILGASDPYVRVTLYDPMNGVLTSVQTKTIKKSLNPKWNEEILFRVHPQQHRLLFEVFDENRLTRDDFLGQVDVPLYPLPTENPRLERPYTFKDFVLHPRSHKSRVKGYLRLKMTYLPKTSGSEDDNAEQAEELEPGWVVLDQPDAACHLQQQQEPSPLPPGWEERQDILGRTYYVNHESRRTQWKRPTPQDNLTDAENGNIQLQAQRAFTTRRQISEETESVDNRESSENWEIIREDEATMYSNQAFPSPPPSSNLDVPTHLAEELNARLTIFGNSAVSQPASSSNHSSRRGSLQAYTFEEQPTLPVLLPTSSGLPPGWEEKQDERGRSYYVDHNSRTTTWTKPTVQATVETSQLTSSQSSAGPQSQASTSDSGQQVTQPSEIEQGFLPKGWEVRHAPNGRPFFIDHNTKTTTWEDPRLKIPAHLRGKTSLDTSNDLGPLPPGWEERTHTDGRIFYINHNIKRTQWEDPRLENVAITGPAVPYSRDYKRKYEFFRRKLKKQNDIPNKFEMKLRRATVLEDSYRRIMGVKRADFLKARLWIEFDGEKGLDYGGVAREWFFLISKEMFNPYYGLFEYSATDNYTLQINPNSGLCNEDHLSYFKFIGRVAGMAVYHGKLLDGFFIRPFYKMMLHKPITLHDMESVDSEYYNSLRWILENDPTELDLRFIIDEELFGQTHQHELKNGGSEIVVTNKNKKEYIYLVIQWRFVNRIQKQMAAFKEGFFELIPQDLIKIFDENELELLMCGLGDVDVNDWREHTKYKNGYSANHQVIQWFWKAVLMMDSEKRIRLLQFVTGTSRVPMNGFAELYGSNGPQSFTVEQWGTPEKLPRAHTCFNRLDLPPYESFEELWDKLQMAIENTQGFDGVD
Nature of the data set: co-immunoprecipitation and immunoblot (FIG. 8B).

d = 2'-deoxy (DNA)

On to `NCCCC(O)(P(=O)([O-])O)P(=O)(O)O.[Na+]` [alendronate, (4-amino-1-hydroxybutylidene)bisphosphonic acid monosodium salt], for which, in data set [1] (50 μM alendronate alone for 1 d), the “amount of cell surface β2AR” value is “increased the amount of cell surface β2AR”. In addition, in data set [1] (50 μM for 1 d, then 10 μM isoproterenol 1 h), the “cell surface β2AR levels before and after agonist induction” value is “increased the cell surface β2AR levels both before and after agonist induction”. For the same molecule, the “cell surface β2AR levels after agonist induction” value in data set [2] (50 or 500 μM for 1 d, then 10 μM isoproterenol 3 h) was “dose dependent increase of the cell surface β2AR levels”. In data set [2] (treatment for 2 days, data not shown), the “surface β2AR levels prior and post agonist induction” value is reported as “increase the surface β2AR levels”. Further, the “effect on cellular cholesterol” value in data set [3] (50 μM ALN or 100 μg/mL pravastatin for 1 d, serum containing medium) is reported as “neither alendronate nor pravastatin could significantly lower the cellular cholesterol”; in data set [3] (50 μM for 1 d, serum-free medium) it was “not sufficient to lower cellular cholesterol”.

On to `CC(C)CCC[C@@H](C)[C@H]1CC[C@H]2[C@@H]3CC=C4C[C@@H](O)CC[C@]4(C)[C@H]3CC[C@]12C` [cholesterol], for which the “effect on FDPS blockade of β2AR down-regulation” value in [1] (cholesterol supplementation (FIG. 6A)) is listed as “reverses the effects of FDPS blockade”.

With `CC(C)NCC(O)c1ccc(O)c(O)c1` (stereo not shown) [isoproterenol], the “decrease of stiffness compared to baseline” value in data set [4] (FDPS knockdown (sample) cells) is on record as approximately 15%; in data set [4] (control cells), approximately 40%.

In the case of `CC[C@H](C)C(=O)O[C@H]1C[C@H](O)C=C2C=C[C@H](C)[C@H](CC[C@@H](O)C[C@@H](O)CC(=O)O)[C@H]21` [pravastatin], the “effect on amount of cell surface β2AR” value in [1] (100 μg/mL for 1 d) and in data set [2] (100 μg/mL for 1 d) was “no significant effect” throughout. In [3] (1 μg/mL for 1 d, serum-free medium), the cellular cholesterol lowering was determined as 19.9%.

“AA496068 EST shRNA: shRNA TCTGCATTTCCTGTAATTTTGCATGC (SEQ ID NO: 2) targeting EST AA496068 upstream of latrophilin 2”: the “cell surface β2AR, mean fluorescence intensity” value in data set [2] (β2ARt-expressing 293 cells, vehicle or ISO 16 h, vs non-targeting shRNA) is “An increase in the mean fluorescence intensity values”.

Turning to “ARRDC3-specific shRNA: shRNA sequence CCACAGACACCACTCGCTACCTCATT (SEQ ID NO: 24)”, the “higher level of cell surface receptor after agonist stimulation” value in data set [2] (β2ARt cells, vs non-targeting shRNA) is more than 20%.

For “CaMKK2 siRNA #1: 5′ GCUCCUAUGGUGUCGUCAAdTdT (SEQ ID NO: 32), MISSION siRNA from Sigma (GCUCCUAUGGUGUCGUCAATT; further chemistry not given here)”, the “knockdown of CaMKK2 expression” value in [5] is given as “about 90%”.

As to “CaMKK2 siRNA #2: 5′ UUGACGACACCAUAGGAGCdTdT (SEQ ID NO: 33), MISSION siRNA from Sigma (UUGACGACACCAUAGGAGCTT; further chemistry not given here)”, the “knockdown of CaMKK2 expression” value in data set [5] is “about 90%”.

As to “FDPS-specific shRNA: lentiviral shRNA clone, hairpin sequence 5′-AGCGGAGAAAGTGACCTAGAGATTG-3′ (SEQ ID NO: 20) (AGCGGAGAAAGTGACCTAGAGATTG)”, the “baseline elastic modulus (t=0)” value in [4] (FDPS knockdown cells vs control cells) is “approximately two times lower”. The “total amount of β2AR” value in data set [6] is given as “upregulation of β2AR”. Further, the “down regulation of FDPS mRNA level (knockdown efficiency)” value in [7] was “about 10%”. For the same molecule, the “amount of β2AR by immunoblot” value in [8] is recorded as “increased amount of β2AR”.

Turning to “FDPS-specific siRNA: sense 5′-cca ugu aca ugg cag gaa u(dT)(dT)-3′, antisense 5′-auu ccu gcc aug uac aug g(dT)(dT)-3′, from Sigma-Aldrich (sense CCAUGUACAUGGCAGGAAU; antisense AUUCCUGCCAUGUACAUGG; RNA, 3' dTdT, backbone not given here)”, the “increase in cell surface β2AR” value in [2] (both prior and post agonist induction (10 μM isoproterenol 1 or 3 h), vs non-targeting control siRNA) was “about 2 fold”. The “down regulation of FDPS mRNA level (knockdown efficiency)” value in [7] is reported as “about 80%”.

On to Methyl-beta-cyclodextrin [MbCD], for which, in [2] (1 or 2 mM for 1 h, then 10 μM isoproterenol 1 h), the “cell surface β2AR post agonist induction” value is given as “increased amount of cell surface β2AR post agonist induction”. For the same molecule, the cellular cholesterol lowering in [3] (2 mM for 1 h, medium containing 10% FBS) is on record as 35.3%.

B1: ARRDC3ΔΔPPXY (double PPXY motif mutant of ARRDC3) (other, human, UniProt Q96B67 1-414, looked up)
chain: MVLGKVKSLTISFDCLNDSNVPVYSSGDTVSGRVNLEVTGEIRVKSLKIHARGHAKVRWTESRNAGSNTAYTQNYTEEVEYFNHKDILIGHERDDDNSEEGFHTIHSGRHEYAFSFELPQTPLATSFEGRHGSVRYWVKAELHRPWLLPVKLKKEFTVFEHIDINTPSLLSPQAGTKEKTLCCWFCTSGPISLSAKIERKGYTPGESIQIFAEIENCSSRMVVPKAAIYQTQAFYAKGKMKEVKQLVANLRGESLSSGKTETWNGKLLKIPPVSPSILDCSIIRVEYSLMVYVDIPGAMDLFLNLPLVIGTIPLHPFGSRTSSVSSQCSMNMNWLSLSLPERPEAAASAAEVVTEEQRRNNLAPVSACDDFERALQGPLFAYIQEFRFLPAALASEIDPNPDQSADDRPSCPSR
notes: also called double PPXY ARRDC3 mutant; double PPXY mutant
Consider B1, for which, in [9], the binding result was “no binding”.

The record behind these values is US20130090371A1, “METHODS AND COMPOSITIONS FOR INHIBITION OF BETA2-ADRENERGIC RECEPTOR DEGRADATION” (PRESIDENT AND FELLOWS OF HARVARD COLLEGE, priority 2010, published 2013).
